# Patent US12528800B2, “Pesticidal compounds” (BASF SE, priority 2018, dated 2026)
# Experiments:
# Format in all cases: in vivo
# [1] = system: yellow fever mosquito (Aedes aegypti); assay: whole plant or invertebrate; conditions: 48 h, larval mortality visually assessed after 2 days, read-out: mortality in comparison with untreated controls
# Description: For evaluating control of yellow fever mosquito (Aedes aegypti) the test unit consisted of 96-well-microtiter plates containing 200 μl of tap water per well and 5-15 freshly hatched A. aegypti larvae.
# The active compounds or mixtures were formulated using a solution containing 75% (v/v) water and 25% (v/v) DMSO. Different concentrations of formulated compounds or mixtures were sprayed onto the insect diet at 2.5 μl using a custom built micro atomizer, at two replications.
# For experimental mixtures in these tests identical volumes of both mixing partners at the desired concentrations respectively, were mixed together.
# After application, microtiter plates were incubated at 28+1° C., 80+5% RH for 2 days. Larval mortality was then visually assessed.
# [2] = system: boll weevil (Anthonomus grandis); assay: Action on boll weevil (Anthonomus grandis), microtiter plate diet test; conditions: 120 h, egg and larval mortality after 5 days, read-out: mortality in comparison with untreated controls
# Description: For evaluating control of boll weevil (Anthonomus grandis) the test unit consisted of 96-well-microtiter plates containing an insect diet and 5-10 A. grandis eggs.
# The compounds were formulated using a solution containing 75% (v/v) water and 25% (v/v) DMSO. Different concentrations of formulated compounds were sprayed onto the insect diet at 5 μl, using a custom built micro atomizer, at two replications.
# After application, microtiter plates were incubated at about 25+1° C. and about 75+5% relative humidity for 5 days. Egg and larval mortality was then visually assessed.
# [3] = system: tobacco budworm (Heliothis virescens); assay: Action on tobacco budworm (Heliothis virescens), microtiter plate diet test; conditions: 120 h, egg and larval mortality after 5 days, read-out: mortality in comparison with untreated controls
# Description: For evaluating control of tobacco budworm (Heliothis virescens) the test unit consisted of 96-well-microtiter plates containing an insect diet and 15-25 H. virescens eggs.
# The compounds were formulated using a solution containing 75% v/v water and 25% v/v DMSO. Different concentrations of formulated compounds were sprayed onto the insect diet at 10 μl, using a custom-built micro atomizer, at two replications.
# After application, microtiter plates were incubated at about 28+1° C. and about 80+5% relative humidity for 5 days. Egg and larval mortality were then visually assessed.
# [4] = system: Diamond back moth (Plutella xylostella); assay: Action on diamond back moth (Plutella xylostella), cabbage leaf dip; conditions: foliar, 3rd instar larvae on dipped cabbage leaves, 72 hours after treatment, read-out: mortality in comparison with untreated controls
# Description: The active compound is dissolved at the desired concentration in a mixture of 1:1 (v/v) distilled water: acetone. Surfactant (Kinetic® HV) is added at a rate of 0.01% (v/v). The test solution is prepared at the day of use.
# Leaves of cabbage were dipped in test solution and air-dried. Treated leaves were placed in petri dishes lined with moist filter paper and inoculated with ten 3rd instar larvae. Mortality was recorded 72 hours after treatment. Feeding damages were also recorded using a scale of 0-100%.
# [5] = system: Southern armyworm (Spodoptera eridania), 2nd instar larvae; assay: Action on southern armyworm (Spodoptera eridania), 2nd instar larvae, sprayed lima bean plants; conditions: 96 h, 2nd instar larvae on lima bean plants, 4 days after treatment, read-out: mortality in comparison with untreated controls
# Description: The active compounds were formulated by a Tecan liquid handler in 100% cyclohexanone as a 10,000 ppm solution supplied in tubes. The 10,000 ppm solution was serially diluted in 100% cyclohexanone to make interim solutions. These served as stock solutions for which final dilutions were made by the Tecan in 50% acetone:50% water (v/v) into 10 or 20 ml glass vials. A nonionic surfactant (Kinetic®) was included in the solution at a volume of 0.01% (v/v). The vials were then inserted into an automated electrostatic sprayer equipped with an atomizing nozzle for application to plants/insects.
# Lima bean plants (variety Sieve) were grown 2 plants to a pot and selected for treatment at the 1st true leaf stage. Test solutions were sprayed onto the foliage by an automated electrostatic plant sprayer equipped with an atomizing spray nozzle. The plants were dried in the sprayer fume hood and then removed from the sprayer. Each pot was placed into perforated plastic bags with a zip closure. About 10 to 11 armyworm larvae were placed into the bag and the bags zipped closed. Test plants were maintained in a growth room at about 25° C. and about 20-40% relative humidity for 4 days, avoiding direct exposure to fluorescent light (24 hour photoperiod) to prevent trapping of heat inside the bags. Mortality and reduced feeding were assessed 4 days after treatment, compared to untreated control plants.
# [6] = system: Orchid thrips (Dichromothrips corbetti); assay: Action on orchid thrips (Dichromothrips corbetti), floral-immersion technique; conditions: adult thrips, 72 hours after treatment, read-out: mortality in comparison with untreated controls
# Description: Dichromothrips corbetti adults used for bioassay were obtained from a colony maintained continuously under laboratory conditions. For testing purposes, the test compound is diluted in a 1:1 mixture of acetone:water (vol:vol), plus Kinetic® HV at a rate of 0.01% v/v.
# Thrips potency of each compound was evaluated by using a floral-immersion technique. All petals of individual, intact orchid flowers were dipped into treatment solution and allowed to dry in Petri dishes. Treated petals were placed into individual re-sealable plastic along with about 20 adult thrips. All test arenas were held under continuous light and a temperature of about 28° C. for duration of the assay. After 3 days, the numbers of live thrips were counted on each petal. The percent mortality was recorded 72 hours after treatment.
SMILES,mortality at 800 ppm [1],mortality at 800 ppm [2],mortality at 800 ppm [3],mortality at 500 ppm [4],mortality at 300 ppm [5],mortality at 500 ppm [6]
"CCn1nc(-c2ccc(/C=N/O[C@@H]3O[C@@H](C)[C@H](OC)[C@@H](OC)[C@H]3OC)cc2)cc1NC(=O)c1ccc(OC(F)(F)F)cc1 [Compound C-32, N-[2-ethyl-5-[4-[(E)-[(2S,3R,4R,5S,6S)-3,4,5-trimethoxy-6-methyl-tetrahydropyran-2-yl]oxyiminomethyl]phenyl]pyrazol-3-yl]-4-(trifluoromethoxy)benzamide]",≥ 50%,≥ 75%,≥ 75%,≥ 75%,≥ 75%,
"CCn1nc(-c2ccc(NC(=O)O[C@@H]3O[C@@H](C)[C@H](OC)[C@@H](OC)[C@H]3OC)cc2)cc1NCc1ccc(OC(F)(F)F)cc1 [Compound C-40, [(2S,3R,4R,5S,6S)-3,4,5-trimethoxy-6-methyl-tetrahydropyran-2-yl] N-[4-[1-ethyl-5-[[4-(trifluoromethoxy)phenyl]methylamino]pyrazol-3-yl]phenyl]carbamate]",≥ 50%,≥ 75%,≥ 75%,≥ 75%,,
"CC(C)c1ccccc1N1C(=O)CS/C1=N\N=C\c1ccc(-c2cc(NC(=O)c3ccc(OC(F)(F)F)cc3)[nH]n2)cc1 [Compound C-58, N-[3-[4-[(E)-[(Z)-[3-(2-isopropylphenyl)-4-oxo-thiazolidin-2-ylidene]hydrazono]methyl]phenyl]-1H-pyrazol-5-yl]-4-(trifluoromethoxy)benzamide]",≥ 50%,≥ 75%,≥ 75%,≥ 75%,,≥ 75%
"CC(C)c1ccccc1N1C(=O)CS/C1=N\N=C\c1ccc(-c2cc(NC(=N)c3ccc(OC(F)(F)F)cc3)n(C)n2)cc1 [Compound C-6, N-[5-[4-[(E)-[(Z)-[3-(2-isopropylphenyl)-4-oxo-thiazolidin-2-ylidene]hydrazono]methyl]phenyl]-2-methyl-pyrazol-3-yl]-4-(trifluoromethoxy) benzamidine]",≥ 50%,≥ 75%,≥ 75%,≥ 75%,≥ 75%,
"CCn1nc(-c2ccc(NC(=O)O[C@@H]3O[C@@H](C)[C@H](OC)[C@@H](OC)[C@H]3OC)cc2)cc1NC(=O)c1ccc(OC(F)(F)F)cc1 [Compound C-33, [(2S,3R,4R,5S,6S)-3,4,5-trimethoxy-6-methyl-tetrahydropyran-2-yl] N-[4-[1-ethyl-5-[[4-(trifluoromethoxy)benzoyl]amino]pyrazol-3-yl]phenyl]carbamate]",≥ 50%,≥ 75%,≥ 75%,≥ 75%,,
"CCn1nc(-c2ccc(/C=N/NC(=S)Nc3ccccc3C(C)C)cc2)cc1NC(=O)c1ccc(OC(F)(F)F)cc1 [Compound C-29, N-[2-ethyl-5-[4-[(E)-[(2-isopropylphenyl)carbamothioylhydrazono]methyl]phenyl]pyrazol-3-yl]-4-(trifluoromethoxy)benzamide]",≥ 50%,≥ 75%,≥ 75%,≥ 75%,≥ 75%,≥ 75%
"CC(C)c1ccccc1N1C(=O)CS/C1=N\N=C\c1ccc(-c2nc(NC(=O)c3ccc(OC(F)(F)F)cc3)n(C)n2)cc1 [Compound C-64, N-[5-[4-[(E)-[(Z)-[3-(2-isopropylphenyl)-4-oxo-thiazolidin-2-ylidene]hydrazono]methyl]phenyl]-2-methyl-1,2,4-triazol-3-yl]-4-(trifluoromethoxy)benzamide]",≥ 50%,≥ 75%,≥ 75%,≥ 75%,≥ 75%,≥ 75%
"CC(C)c1ccccc1N1C(=O)CS/C1=N\N=C\c1ccc(-c2cc(C(=O)Nc3ccc(OC(F)(F)F)cc3)n(C)n2)cc1 [Compound C-47, 5-[4-[(E)-[(Z)-[3-(2-isopropylphenyl)-4-oxo-thiazolidin-2-ylidene]hydrazono]methyl]phenyl]-2-methyl-N-[4-(trifluoromethoxy)phenyl]pyrazole-3-carboxamide]",≥ 50%,,≥ 75%,≥ 75%,≥ 75%,
"CC(C)c1ccccc1NC(=S)N/N=C/c1ccc(-c2cc(NCc3ccc(OC(F)(F)F)cc3)n(C)n2)cc1 [Compound C-3, 1-(2-isopropylphenyl)-3-[(E)-[4-[1-methyl-5-[[4-(trifluoromethoxy)phenyl]methylamino]pyrazol-3-yl]phenyl]methyleneamino]thiourea]",≥ 50%,≥ 75%,≥ 75%,≥ 75%,≥ 75%,≥ 75%
"CC(C)c1ccccc1NC(=S)N/N=C/c1ccc(-c2cc(NC(=O)c3ccc(OC(F)(F)F)cc3)[nH]n2)cc1 [Compound C-57, N-[3-[4-[(E)-[(2-isopropylphenyl)carbamothioylhydrazono]methyl]phenyl]-1H-pyrazol-5-yl]-4-(trifluoromethoxy)benzamide]",≥ 50%,≥ 75%,≥ 75%,≥ 75%,,≥ 75%
"Cc1c(-c2ccc(/C=N/NC(=S)Nc3ccccc3C(C)C)cc2)nn(C)c1NC(=O)c1ccc(C(F)(F)F)cc1 [Compound C-15, N-[5-[4-[(E)-[(2-isopropylphenyl)carbamothioylhydrazono]methyl]phenyl]-2,4-dimethyl-pyrazol-3-yl]-4-(trifluoromethyl)benzamide]",,≥ 75%,≥ 75%,≥ 75%,≥ 75%,≥ 75%
"CC(C)c1ccccc1NC(=S)N/N=C/c1ccc(-c2nc(NC(=O)c3ccc(OC(F)(F)F)cc3)n(C)n2)cc1 [Compound C-63, N-[5-[4-[(E)-[(2-isopropylphenyl)carbamothioylhydrazono]methyl]phenyl]-2-methyl-1,2,4-triazol-3-yl]-4-(trifluoromethoxy)benzamide]",,≥ 75%,≥ 75%,≥ 75%,,≥ 75%
"CC(C)c1ccccc1/N=C1\SCC(=O)N1/N=C/c1ccc(-c2cc(OCc3ccc(OC(F)(F)F)cc3)n(C)n2)cc1 [Compound C-12, (2Z)-2-(2-isopropylphenyl)imino-3-[(E)-[4-[1-methyl-5-[[4-(trifluoromethoxy)phenyl]methoxy]pyrazol-3-yl]phenyl]methyleneamino]thiazolidin-4-one]",≥ 50%,≥ 75%,≥ 75%,≥ 75%,≥ 75%,
